{"source": "patent US10391095B2", "about": "“DNA-PK inhibitors” (Vertex Pharmaceuticals Incorporated, priority 2012, dated 2019)", "data": [{"biological_target": "DNA-PK (Homo sapiens, UniProt P78527)", "test": "DNA-PK inhibition assay (radiometric, 33P-ATP)", "type": "biochemical", "settings": "100 μM ATP, competitive tight-binding fit", "description": "Compounds were screened for their ability to inhibit DNA-PK kinase using a standard radiometric assay. Briefly, in this kinase assay the transfer of the terminal ^33P-phosphate in ^33P-ATP to a peptide substrate is interrogated. The assay was carried out in 384-well plates to a final volume of 50 μL per well containing approximately 6 nM DNA-PK, 50 mM HEPES (pH 7.5), 10 mM MgCl2, 25 mM NaCl, 0.01% BSA, 1 mM DTT, 10 μg/mL sheared double-stranded DNA (obtained from Sigma), 0.8 mg/mL DNA-PK peptide ([…] obtained from American Peptide), and 100 μM ATP. Accordingly, compounds of the invention were dissolved in DMSO to make 10 mM initial stock solutions. Serial dilutions in DMSO were then made to obtain the final solutions for the assay. A 0.75 μL aliquot of DMSO or inhibitor in DMSO was added to each well, followed by the addition of ATP substrate solution containing ^33P-ATP (obtained from Perkin Elmer). The reaction was started by the addition of DNA-PK, peptide and ds-DNA. After 45 min, the reaction was quenched with 25 μL of 5% phosphoric acid. The reaction mixture was transferred to MultiScreen HTS 384-well PH plates (obtained from Millipore), allowed to bind for one hour, and washed three times with 1% phosphoric acid. Following the addition of 50 μL of Ultima Gold™ high efficiency scintillant (obtained from Perkin Elmer), the samples were counted in a Packard TopCount NXT Microplate Scintillation and Luminescence Counter (Packard BioScience). The Ki values were calculated using Microsoft Excel Solver macros to fit the data to the kinetic model for competitive tight-binding inhibition.", "units": {"Ki": "nM"}, "values": [{"smiles": "COc1ccccc1[C@H](C)CNc1cc(-c2ccc(NC(C)CO)nc2)ncn1", "note": "(single isomer, unassigned) [Compound 126]", "Ki": "< 30"}, {"smiles": "COc1ccccc1[C@H](C)CNc1cc(-c2cnc3c(cnn3CC(O)CO)c2)ncn1", "note": "(single isomer, unassigned) [Compound 149]", "Ki": "< 30"}, {"smiles": "COc1ccccc1[C@H](C)CNc1cc(-c2ccnc(NCC(O)CO)c2)ncn1", "note": "(single isomer, unassigned) [Compound 208]", "Ki": "< 30"}, {"smiles": "CNC(=O)c1ccc([C@H](C)CNc2cc(-c3ccc(NC(C)CO)nc3)ncn2)c(OC)c1", "note": "(single isomer, unassigned) [Compound 357]", "Ki": "< 30"}, {"smiles": "CNC(=O)c1ccc([C@H](C)CNc2cc(-c3ccc(NC4CCOC4)nc3)ncn2)c(OC)c1", "note": "(single isomer, unassigned) [Compound 391]", "Ki": "< 30"}, {"smiles": "C[C@H](CNc1cc(-c2cnc3c(cnn3CC(O)CO)c2)ncn1)c1ccnc2c1OCC2", "note": "(single isomer, unassigned) [Compound 436]", "Ki": "< 30"}, {"smiles": "CC(O)Cn1ncc2cc(-c3cc(NC[C@@H](C)c4ccnc5c4OCCO5)ncn3)cnc21", "note": "(single isomer, unassigned) [Compound 503]", "Ki": "< 30"}, {"smiles": "Cc1ccc(-c2cc(NC[C@@H](C)c3cccc4c3OC(CO)C4)ncn2)cn1", "note": "(single isomer, unassigned) [Compound 538]", "Ki": "< 30"}, {"smiles": "Cc1ccc(-c2cc(NC[C@@H](C)c3ccnc4c3OCC4C)ncn2)cn1", "note": "(single isomer, unassigned) [Compound 576]", "Ki": "< 30"}, {"smiles": "CCN1CCCC1CNc1ccc(-c2cc(NC[C@@H](C)c3cccc4c(C(=O)NC)ccnc34)ncn2)cn1", "note": "(single isomer, unassigned) [Compound 704]", "Ki": "< 30"}, {"smiles": "CNC(=O)c1ccnc2c([C@H](C)CNc3cc(-c4ccc(N5CCOC(C)C5)nc4)ncn3)cccc12", "note": "(single isomer, unassigned) [Compound 713]", "Ki": "< 30"}, {"smiles": "CNC(=O)c1ccnc2c([C@H](C)CNc3cc(-c4ccc(N5CCN6C(=O)OCC6C5)nc4)ncn3)cccc12", "note": "(single isomer, unassigned) [Compound 731]", "Ki": "< 30"}, {"smiles": "COc1ccccc1CCNc1cc(-c2ccc3ncccc3c2)ncn1", "note": "[Compound 1]", "Ki": "< 30"}, {"smiles": "COc1ccccc1CCNc1cc(-c2cnc3[nH]ccc3c2)ncn1", "note": "[Compound 8]", "Ki": "< 30"}, {"smiles": "COc1ccccc1CCNc1cc(-c2ccc(C)nc2)ncn1", "note": "[Compound 11]", "Ki": "< 30"}, {"smiles": "COc1ccccc1CCNc1cc(-c2ccc(N3CCN(C(C)=O)CC3)nc2)ncn1", "note": "[Compound 16]", "Ki": "< 30"}, {"smiles": "CN1CCN(c2ccc(-c3cc(NCCc4cccc5c4OCC5)ncn3)cn2)CC1", "note": "[Compound 30]", "Ki": "< 30"}, {"smiles": "COc1ccccc1[C@H](C)CNc1cc(-c2ccc(N3CCN(C)CC3)nc2)ncn1", "note": "[Compound 32, (S)—N-(2-(2-Methoxyphenyl)propyl)-6-(6-(4-methylpiperazin-1-yl)pyridin-3-yl)pyrimidin-4-amine]", "Ki": "< 30"}, {"smiles": "COc1ccccc1CCNc1cc(-c2cnc3c(ccn3C)c2)ncn1", "note": "[Compound 34]", "Ki": "< 30"}, {"smiles": "CCn1ccc2cc(-c3cc(NCCc4ccccc4OC)ncn3)cnc21", "note": "[Compound 35]", "Ki": "< 30"}, {"smiles": "CCCn1ccc2cc(-c3cc(NCCc4ccccc4OC)ncn3)cnc21", "note": "[Compound 36]", "Ki": "< 30"}, {"smiles": "COc1ccccc1CCNc1cc(-c2cnc3c(ccn3C(C)C)c2)ncn1", "note": "[Compound 37]", "Ki": "< 30"}, {"smiles": "COCCn1ccc2cc(-c3cc(NCCc4ccccc4OC)ncn3)cnc21", "note": "[Compound 38]", "Ki": "< 30"}, {"smiles": "COc1ccccc1CCNc1cc(-c2cnc3c(ccn3CC3CC3)c2)ncn1", "note": "[Compound 40]", "Ki": "< 30"}, {"smiles": "COc1ccccc1CCNc1cc(-c2cnc3c(ccn3CC3CCOCC3)c2)ncn1", "note": "[Compound 41]", "Ki": "< 30"}, {"smiles": "COc1ccccc1CCNc1cc(-c2cnc3c(cnn3C)c2)ncn1", "note": "[Compound 42]", "Ki": "< 30"}, {"smiles": "COc1ccccc1CCNc1cc(-c2cnc3c(cnn3C(C)C)c2)ncn1", "note": "[Compound 44]", "Ki": "< 30"}, {"smiles": "COc1ccccc1CCNc1cc(-c2cnc3c(cnn3CCC(C)C)c2)ncn1", "note": "[Compound 45]", "Ki": "< 30"}, {"smiles": "COc1ccccc1CCNc1cc(-c2ccc(N3CCCC3)nc2)ncn1", "note": "[Compound 46]", "Ki": "< 30"}, {"smiles": "COc1ccccc1[C@H](C)CNc1cc(-c2ccc(C)nc2)ncn1", "note": "[Compound 55]", "Ki": "< 30"}, {"smiles": "CCOc1ccccc1CCNc1cc(-c2ccc(C)nc2)ncn1", "note": "[Compound 57]", "Ki": "< 30"}, {"smiles": "Cc1ccc(-c2cc(NCCc3cccc4c3OCC4)ncn2)cn1", "note": "[Compound 60]", "Ki": "< 30"}, {"smiles": "CC(CNc1cc(-c2ccc(N3CCN(C)CC3)nc2)ncn1)c1ccccc1OC(F)F", "note": "(centres unmarked) [Compound 63]", "Ki": "< 30"}, {"smiles": "COc1cc(SC)ccc1C(C)CNc1cc(-c2ccc(N3CCN(C(C)=O)CC3)nc2)ncn1", "note": "(centres unmarked) [Compound 73]", "Ki": "< 30"}, {"smiles": "COc1ccccc1CCNc1cc(-c2ccc3c(cnn3C)c2)ncn1", "note": "[Compound 79]", "Ki": "< 30"}, {"smiles": "COc1ccccc1[C@H](C)CNc1cc(-c2ccc3ncccc3c2)ncn1", "note": "[Compound 80]", "Ki": "< 30"}, {"smiles": "COc1ccccc1CCNc1cc(-c2cnc3c(cnn3C3CCN(C)CC3)c2)ncn1", "note": "[Compound 82]", "Ki": "< 30"}, {"smiles": "COc1ccccc1[C@H](C)CNc1cc(-c2cnc3c(cnn3C3CCN(C)CC3)c2)ncn1", "note": "[Compound 83]", "Ki": "< 30"}, {"smiles": "COc1ccccc1[C@H](C)CNc1cc(-c2ccc(N3CCCC3)nc2)ncn1", "note": "[Compound 84]", "Ki": "< 30"}, {"smiles": "Cc1ccc(-c2cc(NCC(C)c3cccc4c3OC(C)(C)C4)ncn2)cn1", "note": "(centres unmarked) [Compound 85]", "Ki": "< 30"}, {"smiles": "Cc1ccc(-c2cc(NCCc3ccccc3OC3CC3)ncn2)cn1", "note": "[Compound 86]", "Ki": "< 30"}, {"smiles": "CN1CCN(c2ccc(-c3cc(NCCc4ccccc4OC4CC4)ncn3)cn2)CC1", "note": "[Compound 87]", "Ki": "< 30"}, {"smiles": "CCOc1ccccc1C(C)CNc1cc(-c2ccc(C)nc2)ncn1", "note": "(centres unmarked) [Compound 91]", "Ki": "< 30"}, {"smiles": "CCOc1ccccc1C(C)CNc1cc(-c2ccc(N3CCN(C)CC3)nc2)ncn1", "note": "(centres unmarked) [Compound 92]", "Ki": "< 30"}, {"smiles": "CCOc1ccccc1CCNc1cc(-c2ccc(N3CCN(CCO)CC3)nc2)ncn1", "note": "[Compound 94]", "Ki": "< 30"}, {"smiles": "COc1ccccc1[C@H](C)CNc1cc(-c2ccc(F)nc2)ncn1", "note": "[Compound 96]", "Ki": "< 30"}, {"smiles": "COc1ccccc1CCNc1cc(-c2cnc3c(cnn3CS(C)(=O)=O)c2)ncn1", "note": "[Compound 97]", "Ki": "< 30"}, {"smiles": "CCOc1ccccc1CCNc1cc(-c2ccc(N3CC[C@H](O)C3)nc2)ncn1", "note": "[Compound 98]", "Ki": "< 30"}, {"smiles": "CCOc1ccccc1CCNc1cc(-c2ccc(N3CC[C@@H](O)C3)nc2)ncn1", "note": "[Compound 99]", "Ki": "< 30"}, {"smiles": "CCOc1cc(F)ccc1C(C)CNc1cc(-c2ccc(C)nc2)ncn1", "note": "(centres unmarked) [Compound 100]", "Ki": "< 30"}, {"smiles": "Cc1ccc(-c2cc(NCC(C)c3ccccc3OC3COC3)ncn2)cn1", "note": "(centres unmarked) [Compound 101]", "Ki": "< 30"}, {"smiles": "CC(CNc1cc(-c2ccc(N3CCN(C)CC3)nc2)ncn1)c1ccccc1OC1COC1", "note": "(centres unmarked) [Compound 102]", "Ki": "< 30"}, {"smiles": "CCOc1cc(F)ccc1[C@H](C)CNc1cc(-c2ccc(C)nc2)ncn1", "note": "[Compound 103]", "Ki": "< 30"}, {"smiles": "COc1ccccc1[C@H](C)CNc1cc(-c2ccnc(-c3ccnc(F)c3)c2)ncn1", "note": "[Compound 105]", "Ki": "< 30"}, {"smiles": "Cc1ccc(-c2cc(NC[C@@H](C)c3ccccc3OC3CC3)ncn2)cn1", "note": "[Compound 107]", "Ki": "< 30"}, {"smiles": "Cc1ccc(-c2cc(NC[C@@H](C)c3ccccc3O)ncn2)cn1", "note": "[Compound 109]", "Ki": "< 30"}, {"smiles": "CCOc1ccccc1[C@H](C)CNc1cc(-c2ccc(C)nc2)ncn1", "note": "[Compound 110]", "Ki": "< 30"}, {"smiles": "C[C@H](CNc1cc(-c2ccc(N3CCN(C)CC3)nc2)ncn1)c1ccccc1OC1CC1", "note": "[Compound 114]", "Ki": "< 30"}, {"smiles": "COc1cc(CO)ccc1C(C)CNc1cc(-c2ccc(N3CCN(C(C)=O)CC3)nc2)ncn1", "note": "(centres unmarked) [Compound 115]", "Ki": "< 30"}, {"smiles": "COC(=O)c1ccc(C(C)CNc2cc(-c3ccc(N4CCN(C(C)=O)CC4)nc3)ncn2)c(OC)c1", "note": "(centres unmarked) [Compound 116]", "Ki": "< 30"}, {"smiles": "COc1cc(F)c(F)cc1C(C)CNc1cc(-c2ccc(C)nc2)ncn1", "note": "(centres unmarked) [Compound 117]", "Ki": "< 30"}, {"smiles": "COc1ccccc1[C@H](C)CNc1cc(-c2ccc(NCCO)nc2)ncn1", "note": "[Compound 118]", "Ki": "< 30"}, {"smiles": "COc1ccccc1[C@H](C)CNc1cc(-c2ccnc(NCCO)c2)ncn1", "note": "[Compound 119]", "Ki": "< 30"}, {"smiles": "CCOc1cc(F)ccc1[C@H](C)CNc1cc(-c2ccc(N3CCN(C)CC3)nc2)ncn1", "note": "[Compound 120]", "Ki": "< 30"}, {"smiles": "COc1cc(C(N)=O)ccc1C(C)CNc1cc(-c2ccc(C)nc2)ncn1", "note": "(centres unmarked) [Compound 122]", "Ki": "< 30"}, {"smiles": "CNC(=O)c1ccc(C(C)CNc2cc(-c3ccc(C)nc3)ncn2)c(OC)c1", "note": "(centres unmarked) [Compound 123]", "Ki": "< 30"}, {"smiles": "CCOc1ncc(-c2cc(NC[C@@H](C)c3ccccc3OC)ncn2)cn1", "note": "[Compound 125]", "Ki": "< 30"}, {"smiles": "COc1ccccc1[C@H](C)CNc1cc(-c2cnc3c(cnn3CCO)c2)ncn1", "note": "[Compound 127]", "Ki": "< 30"}, {"smiles": "COc1cc(F)c(F)cc1[C@H](C)CNc1cc(-c2ccc(C)nc2)ncn1", "note": "[Compound 128]", "Ki": "< 30"}, {"smiles": "CNC(=O)c1ccc(C(C)CNc2cc(-c3ccc(N4CCN(C(C)=O)CC4)nc3)ncn2)c(OC)c1", "note": "(centres unmarked) [Compound 130]", "Ki": "< 30"}, {"smiles": "COc1cc(C(N)=O)ccc1C(C)CNc1cc(-c2ccc(N3CCN(C(C)=O)CC3)nc2)ncn1", "note": "(centres unmarked) [Compound 131]", "Ki": "< 30"}]}]}
